# Test results taken from patent US20240156767A1, “SCREENING METHOD FOR GLP-1 SECRETION REGULATION AGENT, GLP-1 SECRETION REGULATION AGENT, COMPOSITION FOR PREVENTING OR AMELIORATING DIABETES, OBESITY, POSTPRANDIAL HYPERGLYCEMIA, NEURODEGENERATIVE DISEASE, HYPOGLYCEMIA, ADIPOSITY, OR NESIDIOBLASTOSIS, METHOD FOR PROMOTING SECRETION OF GLP-1 IN …” (The Nisshin OilliO Group, Ltd., priority 2021, published 2024).
# Experiments:
# Assay type in all cases: in vivo
# GPR84 knockout mice [1] = assay: Same test as Test 2 (glucose tolerance, plasma insulin) using GPR84 knockout mice, data not shown; details: effect lower than with wild-type mice
# Text: However, the increasing effect was lower than with wild-type mice. […] It was inferred that the total insulin secretion was reduced compared with that of wild-type mice.
# GPR84 knockout mice [2] = assay: Administration test: plasma GLP-1 concentration in GPR84 knockout mice (ELISA); details: GPR84KO mice; 1000 mg/kg oral; 120 minutes after administration; mean±standard error
# Method: An administration test was carried out by the following method to examine an effect of administration of various medium chain fatty acids (capric acid or lauric acid, both are a free form) to mice on plasma GLP-1 secretion. The above medium chain fatty acids correspond to GPR84 agonists. A control sample (carboxymethylcellulose), a capric acid sample, and a lauric acid sample were prepared in the same manner as in the <Test 2> above. Based on the following method, any one of a control sample, a capric acid sample, and a lauric acid sample was administered to mice in each group. In this test, two types of mice, that is, wild-type mice and GPR84 knockout mice, were prepared. As wild-type mice, 18 C57BL/6 male mice at 7- to 9-weeks old (purchased from Japan SLC, Inc.) were used. […] Plasma was prepared by a conventional method from the blood obtained before and after sample administration, and the plasma GLP-1 concentration (pM) was measured. The plasma GLP-1 concentration was measured by ELISA using a commercially available kit (trade name “Glucagon Like Peptide-1 (Active) ELIS”, manufactured by Sigma-Aldrich). The data in FIG. 3 and Table 3 are expressed as relative values (Relative GLP-1) when the average value of plasma GLP-1 concentration before administration of each sample is set to “1”, and expressed as “mean±standard error of the relative values”. […]
# C57BL/6 male mice = assay: Glucose tolerance test in mice: plasma insulin concentration (ELISA); details: 1000 mg/kg oral; for Plasma insulin concentration: glucose 2.5 g/kg 60 minutes after sample, blood 30 minutes after glucose, mean±standard error; for Effect on plasma insulin concentration (in words): wild-type mice, glucose tolerance test
# Method: A glucose tolerance test was carried out by the following method to examine the effect by administration of various medium chain fatty acids (capric acid or lauric acid, both are a free body) to mice on plasma insulin secretion at that time. Note here that the above-mentioned medium chain fatty acid corresponds to a GPR84 agonist. Ten tablets of PBS (trade name “Phosphate Buffered Salts Tablets”, manufactured by Takara Bio Inc.) were dissolved in distilled water, and the total volume was adjusted to 1000 ml. To 10 ml of the prepared solution, 50 mg of carboxymethyl cellulose (trade name “Carboxymethyl cellulose sodium”, manufactured by FUJIFILM Wako Pure Chemical Industries, Ltd.) was added and mixed to obtain a carrier solution. To the obtained carrier solution, 2 g of capric acid (trade name “Decanoic acid”, manufactured by FUJIFILM Wako Pure Chemical Industries, Ltd.) was added, and mixed while heating to obtain a capric acid sample. A carrier solution was obtained in the same manner as in the (1-2) above. To the obtained carrier solution, 2 g of lauric acid (trade name “Dodecanoic acid”, manufactured by Sigma-Aldrich) was added and mixed while heating to obtain a lauric acid sample. Ten tablets of PBS (trade name “Phosphate Buffered Salts Tablets”, manufactured by Takara Bio Inc.) were dissolved in distilled water, and the total amount was adjusted to 1000 ml. To 10 ml of the prepared solution, 2.5 g of glucose (trade name “D(+)-glucose”, manufactured by FUJIFILM Wako Pure Chemical Industries, Ltd.) was added to obtain a glucose liquid. Based on the following method, any one of a control sample, a capric acid sample, and a lauric acid sample was administered to mice in each group, and then a glucose solution was further administered to carry out a glucose tolerance test. C57BL/6 male mice at 7- to 9-weeks old were purchased from Japan SLC, Inc. Each mouse (15 mice in total) was acclimatized for 1 week and then divided into three groups (a control sample administration group, a capric acid sample administration group, and a lauric acid sample administration group) so that the average body weight was uniform. […] Plasma was prepared from the obtained blood by a conventional method, and the plasma insulin concentration (pg/ml) was measured. The plasma insulin concentration was measured by ELISA using a commercially available kit (trade name “Revis (trademark) Insulin-Mouse (RTU)”, manufactured by Fujifilm Wako Shibayagi Co., Ltd.). In the data of FIG. 2 and Table 2, the measured value of the plasma insulin concentration was expressed as “mean±standard error”. Dunnet's test was used to test significant differences between trials, and significant differences were determined to exist when the risk rate was less than 5% (*p<0.05).
SMILES,Effect on plasma insulin concentration (in words) (GPR84 knockout mice [1]),Relative GLP-1 (plasma GLP-1 concentration relative to before administration = 1) (GPR84 knockout mice [2]),Plasma insulin concentration (C57BL/6 male mice),Effect on plasma insulin concentration (in words) (C57BL/6 male mice)
"CCCCCCCCCC(=O)O [Capric acid, capric acid (n-decanoic acid)]",increased the plasma insulin concentration,0.63 ± 0.2,395.1 ± 26.1 * pg/ml,significantly increased plasma insulin concentrations
"CCCCCCCCCCCC(=O)O [Lauric acid, lauric acid]",increased the plasma insulin concentration,0.68 ± 0.19,702.8 ± 84.4 * pg/ml,significantly increased plasma insulin concentrations
